Assay results published in ChEMBL document CHEMBL1125938, “A novel targeted delivery system utilizing a cephalosporin-oncolytic prodrug activated by an antibody -lactamase conjugate for the treatment of cancer” (Bioorg Med Chem Lett, 1991).
≈ marks a conversion by molar mass, not a printed value.

Legend:
LS174T [1] = assay: Compound was evaluated for in vitro cytotoxicity after 48 hour, against CEA-bearing LS174T human colon carcinoma cells, in absence of beta-L-CEM 231 conjugate; type: functional, cell-based
LS174T [2] = assay: Compound was evaluated for in vitro cytotoxicity after 6 hour, against CEA-bearing LS174T human colon carcinoma cells, in absence of beta-L-CEM 231 conjugate; type: functional, cell-based

Row | SMILES | IC50 (LS174T [1]) [µg/mL] | IC50 (LS174T [2]; Homo sapiens, LS174T, 6 h, read-out: IC50) [µg/mL] | IC50 (LS174T [2]; ls174t) [µg/mL]
1 | CC[C@]1(O)C[C@@H]2CN(CCc3c([nH]c4ccccc34)[C@@](C(=O)OC)(c3cc4c(cc3OC)N(C)C3[C@]45CCN4CC=C[C@@](CC)([C@@H](O)[C@]3(O)C(=O)NCCS)[C@H]45)C2)C1 (stereo not given in full) | < 0.001 | 0.26 (≈ 0.319 µM) | –
2 | CC[C@]1(O)C[C@@H]2CN(CCc3c([nH]c4ccccc34)[C@@](C(=O)OC)(c3cc4c(cc3OC)N(C)C3[C@]45CCN4CC=C[C@@](CC)([C@@H](O)[C@]3(O)C(=O)NCCSCC3=C(C(=O)O)N6C(=O)[C@@H](NC(=O)Cc7cccs7)[C@H]6SC3)[C@H]45)C2)C1 (single isomer, unassigned; (+)) | – | – | 0.26 (≈ 0.226 µM)
3 | CC[C@]1(O)C[C@@H]2CN(CCc3c([nH]c4ccccc34)[C@@](C(=O)OC)(c3cc4c(cc3OC)N(C)C3[C@]45CCN4CC=C[C@@](CC)([C@@H](O)[C@]3(O)C(=O)NCCSCC3=C(C(=O)O)N6C(=O)[C@@H](NC(=O)Cc7cccs7)[C@H]6SC3)[C@H]45)C2)C1 (single isomer, unassigned; (-)) | < 0.001 | – | 2.15 (≈ 1.87 µM)
